Test results as given in publication PMC3574224, “Na^+ Regulation in the Malaria Parasite Plasmodiumfalciparum Involves the Cation ATPase PfATP4 and Is a Target of the Spiroindolone Antimalarials” (Cell Host & Microbe, 2013).

Key:
[1] = test system: P. falciparum trophozoites; assay: Cytosolic pH (pHi) in BCECF-loaded saponin-isolated parasites; type: cell-based, Plasmodium falciparum; details: 50 nM
Method: pHi of saponin-isolated parasites was measured using the pH-sensitive indicator BCECF (Molecular Probes, Invitrogen) as described previously ([Saliba and Kirk, 1999]). […] Critical experiments performed using SBFI-loaded parasites were repeated with parasites loaded with BCECF.

[2] = biological target: T1, membrane-associated ATPase activity, Dd2^attB CAM I398F/P990R (mutant PfATP4 transfectant) (Plasmodium falciparum, UniProt A0A143ZZK9, I398F/P990R); assay: Membrane-associated ATPase activity, Dd2^attB CAM I398F/P990R; type: biochemical; details: concentration causing Pi production rate to decrease by half the maximal amount, read-out: IC50 for disruption of ATPase activity by NITD246
T1 sequence (A0A143ZZK9 1-1264 I398F/P990R): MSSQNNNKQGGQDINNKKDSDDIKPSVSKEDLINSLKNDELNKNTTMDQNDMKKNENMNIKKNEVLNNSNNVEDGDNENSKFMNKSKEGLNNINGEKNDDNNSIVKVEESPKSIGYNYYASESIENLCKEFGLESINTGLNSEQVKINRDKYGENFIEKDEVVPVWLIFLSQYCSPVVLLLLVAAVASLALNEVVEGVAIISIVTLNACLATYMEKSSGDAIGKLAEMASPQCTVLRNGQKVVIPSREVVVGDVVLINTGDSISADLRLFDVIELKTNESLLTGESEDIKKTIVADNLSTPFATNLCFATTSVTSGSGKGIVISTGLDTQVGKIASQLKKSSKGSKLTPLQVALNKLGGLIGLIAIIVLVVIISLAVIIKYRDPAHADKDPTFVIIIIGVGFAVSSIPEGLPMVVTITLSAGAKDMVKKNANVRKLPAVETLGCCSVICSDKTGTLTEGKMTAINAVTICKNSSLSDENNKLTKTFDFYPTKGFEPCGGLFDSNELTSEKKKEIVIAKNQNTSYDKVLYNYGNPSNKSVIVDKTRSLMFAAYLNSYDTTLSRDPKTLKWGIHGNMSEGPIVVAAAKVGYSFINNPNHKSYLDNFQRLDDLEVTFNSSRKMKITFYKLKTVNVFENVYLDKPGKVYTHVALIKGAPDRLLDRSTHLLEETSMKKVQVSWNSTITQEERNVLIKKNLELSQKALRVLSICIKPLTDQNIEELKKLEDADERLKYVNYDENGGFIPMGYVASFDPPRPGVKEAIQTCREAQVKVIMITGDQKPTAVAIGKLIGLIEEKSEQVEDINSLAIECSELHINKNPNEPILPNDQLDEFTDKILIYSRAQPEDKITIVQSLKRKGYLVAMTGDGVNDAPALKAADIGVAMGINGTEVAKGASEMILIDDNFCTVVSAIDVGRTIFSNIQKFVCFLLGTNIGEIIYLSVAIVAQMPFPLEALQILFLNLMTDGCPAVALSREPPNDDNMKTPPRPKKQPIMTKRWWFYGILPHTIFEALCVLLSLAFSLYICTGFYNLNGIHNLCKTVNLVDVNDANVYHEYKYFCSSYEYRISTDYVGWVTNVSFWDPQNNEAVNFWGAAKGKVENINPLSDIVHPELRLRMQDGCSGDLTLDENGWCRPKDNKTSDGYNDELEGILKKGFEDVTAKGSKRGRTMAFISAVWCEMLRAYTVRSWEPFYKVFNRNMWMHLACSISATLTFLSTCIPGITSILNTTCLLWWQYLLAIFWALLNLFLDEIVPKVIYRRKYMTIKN
Method: (§1) For the preparation of uninfected erythrocyte membranes, packed uninfected erythrocytes were lysed by incubation for 5 min in ice-cold PBS containing 0.1% (w/v) saponin together with 1/500 Protease Inhibitor Cocktail Set III (Calbiochem). The erythrocyte ghosts were pelleted by centrifugation (12,000 × g, 10 min) and washed three times in ice-cold water (12,000 × g, 10 min) immediately prior to their use in the ATPase assay. To prepare membranes from parasitised erythrocytes, saponin-isolated parasites were lysed by suspension in ice-cold water (containing 1/500 Protease Inhibitor Cocktail Set III) then washed three times in ice-cold water (12,000 × g, 10 min) before their immediate use in the ATPase assay. The ATPase activity of membrane preparations from uninfected erythrocytes and saponin-isolated parasites was estimated from the rate of hydrolysis of ATP and measured using the PiColorLock Gold Phosphate (Pi) Detection System (Innova Biosciences). Briefly, membrane preparations from 1–3 × 10^8 cells were suspended in reaction buffer (100 mM of either NaCl or choline chloride, 50 mM Tris-HCl, 20 mM KCl, and 2 mM MgCl2) at 37°C. The ATPase reaction was initiated by the addition of 0.25 mM Na2ATP. Note that it was necessary to use the Na^+ salt of ATP, rather than the K^+ and Mg^2+ salts, as the latter both contain residual Pi that saturated the Pi detection system. […]

[3] = biological target: T2, membrane-associated ATPase activity in P. falciparum infected human erythrocytes (3D7) (Plasmodium falciparum, UniProt A0A143ZZK9); assay: Membrane-associated ATPase activity (Pi production), infected erythrocyte membranes; type: biochemical; details: 50 nM
T2 construct: saponin-isolated parasites were lysed by suspension in ice-cold water; endogenous in cells; host or cells: membrane preparation of saponin-isolated mature trophozoite-stage P. falciparum 3D7 parasites
Method: as §1

Which results are given for `C[C@H]1Cc2c([nH]c3cc(F)c(F)cc23)[C@@]2(N1)C(=O)Nc1ccc(Cl)cc12` [NITD246]?
Cytosolic pH (pHi) after addition ([1]; Na^+-containing medium pH 7.1, increase from 7.33 ± 0.03, n = 6, p = 0.009): 7.46 ± 0.02; Effect on pHi ([1]; solution containing choline^+ in place of Na^+): no significant effect; IC50 [2]: 0.17 ± 0.12 nM; remaining activity at 0.05 µM ([3]; 100 mM Na^+, n = 5, p = 0.020, read-out: ATPase activity, % of the control value): 60%; Effect on ATPase activity ([3]; low (0.5 mM) [Na^+] medium, p = 0.63): no significant change
